The target of this assay is T1, hYAK1 (Homo sapiens, UniProt Q92630).
T1 construct: DET1/DET2-tagged full length hYAK1 was expressed in Drosophila sf9 cells; DET1/DET2 tag (purified on Ni column); made in house; host or cells: "Drosophila sf9 cells" as printed (insect cells)
T1 sequence (Q92630 1-528 isoform Q92630-2): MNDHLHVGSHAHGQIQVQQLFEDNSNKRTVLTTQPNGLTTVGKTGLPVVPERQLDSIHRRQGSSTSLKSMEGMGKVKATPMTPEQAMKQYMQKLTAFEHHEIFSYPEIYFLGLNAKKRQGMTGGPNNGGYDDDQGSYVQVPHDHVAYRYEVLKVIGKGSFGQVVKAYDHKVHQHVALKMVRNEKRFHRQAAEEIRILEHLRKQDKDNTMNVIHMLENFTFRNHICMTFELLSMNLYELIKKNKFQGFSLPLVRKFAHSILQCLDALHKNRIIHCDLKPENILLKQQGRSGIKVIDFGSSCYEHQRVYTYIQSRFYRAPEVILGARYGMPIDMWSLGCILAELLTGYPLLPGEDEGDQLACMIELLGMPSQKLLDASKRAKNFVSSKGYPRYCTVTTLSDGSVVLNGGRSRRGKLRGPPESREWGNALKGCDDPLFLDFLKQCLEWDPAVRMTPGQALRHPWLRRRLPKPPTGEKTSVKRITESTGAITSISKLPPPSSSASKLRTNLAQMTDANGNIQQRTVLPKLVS
Kind of assay: FlashPlate kinase assay of hYAK1 (Ni-hYAK1). In kind it is biochemical. On the procedure:
This same assay can be performed on a FlashPlate format in which the plate is coated with MBP or with the S164 peptide by incubation overnight at 4° C. in 100 ul of either substrate dissolved in Sodium Carbonate buffer, pH 8.8. When coating with MBP, a solution of 100 ug/ml MBP was used to coat wells with 100 ul (10 ug) MBP per well. When coating with Ser164, a solution of 0.4 mg/ml (0.25 mM) was used to coat wells with 100 ul (40 ug) Ser164 per well. An example of a FlashPlate assay protocol and typical results are given below:
• 1. Coat Maxisorp plates (Nunk, Immunoplate, Maxisorp™) with MBP or Ser164 as above. • 2. Wash plates once with kinase assay buffer (KB): 25 mM Hepes, pH 7.5; 0.2 mM NaV; 10 mM.-glycerol phosphate; 1 mM Na pyrophosphate • 3. Add enzyme (Ni-hYAK1, diluted in KB), DMSO or inhibitors (in KB) and keep on ice 30 min • 4. Add KB containing Mg/AJP to a [final] of 0.1 mM [.-33P]ATP and 10 mM MgCl2 • 5. Incubate with shaking, 1–2 hrs, RT • 6. Aspirate and wash 6×0.5 ml KB • 7. Read 33P incorporation in FP reader • 8. Blank=No enzyme added • 9. Reaction volume: 25, 50 or 100 ul • 10. 0.5 or 1.0 uCi 33P/0.1 mM ATP • 11. MBP-FP better than basic FP (in house coating) • 12. 37° C. incubation was not better (several time points) • 13. Other incubation times at RT were not better Results: […]

Values joined by “and” are separate entries in the source; they are usually repeats but may differ in a detail not shown here. Equal entries are not always repeated.

The term IC50 denotes the midpoint of a concentration-inhibition curve. High values mean weaker potency, low ones greater potency.

Turning to `COC(=O)[C@@]1(O)C[C@H]2O[C@]1(C)n1c3ccccc3c3c4c(c5c6ccccc6n2c5c31)C(=O)NC4` [Example K252a], where the note is “0.3 ug hYAK1”, the IC50 is 552 nM and 427 nM.
`NC1=N/C(=C2/CCNC(=O)c3[nH]c(Br)cc32)C(=O)N1` [SKF-108752]: the IC50 by setting is: (0.1 ug hYAK1) 190 nM; (0.3 ug hYAK1) 130 nM and 160 nM.
